Laboratory results: patent publication US9333202B2, “Non-retinoid antagonists for treatment of age-related macular degeneration and stargardt disease” (THE TRUSTEES OF COLUMBIA UNIVERSITY IN THE CITY OF NEW YORK, priority 2012, dated 2016)

Key:
[1] = test system: lipofuscin bisretinoids (A2E, A2-DHP-PE, atRAL di-PE); assay: Bisretinoid (lipofuscin fluorophore) levels in eyecups of Abca4−/− mice by HPLC; type: in vivo, mouse
Source text: The Abca4−/− mouse model manifests accelerated accumulation of lipofuscin in the RPE and is considered a pre-clinical efficacy model for a drug reducing lipofuscin accumulation. […] There was approximately a 70% reduction in the serum RBP4 level in treated animals (FIG. 11). Additionally, it was discovered that that the levels of A2E/isoA2E and other bisretinoids were reduced by approximately 50% in treated mice (FIG. 12).
Abca4/Abcr null mutant mice (albino) homozygous for Rpe65-Leu450 are bred genotyped and housed. Posterior eyecups of mice and RPE/choroids harvested from human donor eyes (National Disease Research Interchange, Philadelphia Pa.) are homogenized in phosphate buffered saline (PBS) using a glass tissue grinder and extracted in chloroform/methanol (2:1). Extracts are subsequently filtered through cotton and passed through a reverse phase cartridge (C8 Sep-Pak, Millipore) with 0.1% TFA (Aldrich Chemical Company, Milwaukee, Wis.) in methanol. […] An Alliance system (Waters, Corp, Milford, Mass.) equipped with 2695 Separation Module, 2996 Photodiode Array Detector, a 2475 Multi λ Fluorescence Detector and operating with Empower® software is used for HPLC analysis. […] HPLC quantification is carried out using the Empower® software to determine peak areas. […] Molar quantity per murine eye is determined using calibration curves constructed from known concentrations of purified external standards and by normalizing to the ratio of the HPLC injection volume (10 μL) versus total extract volume. […]
Following euthanasia, posterior eye cups were pooled and homogenized in PBS using a tissue grinder. […] For quantification of bisretinoids of RPE lipofuscin, a Waters Alliance 2695 HPLC system was employed with an Atlantis dC18 column (Waters, 4.6 mm×150 mm, 3 μm) and the following gradient of acetonitrile in water (containing 0.1% trifluoroacetic acid): 90 to 100% from 0 to 10 min and 100% acetonitrile from 10 to 20 min, with a flow rate of 0.8 mL/min with monitoring at 430 nm. […] Levels of bisretinoid were determined by reference to external standards of HPLC-purified compound. […]

[2] = Observation of toxicity signs during 6 week chronic dosing; type: in vivo; conditions: 6 week-long chronic dosing, 30 mg/kg daily oral
Description: (§1) Ten week-old Abca4 null mutant mice (129/SV×C57BL/6J) bred as previously described were used in the study. Abca4−/− (knockout) and Abca4+/+(wild-type) mice were raised under 12 h on-off cyclic lighting with an in-cage illuminance of 30-50 lux. For long-term oral dosing A1120 was formulated into Purina 5035 rodent chow at Research Diets, Inc. (New Brunswick, N.J.) to ensure consistent 30 mg/kg daily oral dosing. Animals were administered the A1120-containing chow for 6 weeks.
To determine whether A1120 has an effect on retinal production of lipofuscin fluorophores we administered the compound at the daily 30 mg/kg dose to Abca4−/− mice for a period of 6 weeks. Blood samples collected from the treatment and control groups at baseline, Day 21 and Day 42 were used to measure serum RBP4 in order to correlate RBP4 levels with reduction in formation of lipofuscin bisretinoids. […] Levels of lipofuscin fluorophores (A2E, A2-DHP-PE and all-trans-retinal dimer-PE) were determined at the end of the 42-day treatment period using quantitative HPLC.
Administration of A1120 reduces the production of A2E, A2-DHP-PE, and atRAL di-PE in A1120-treated Abca4−/− mice in comparison to the vehicle-treated Abca4−/− animals by approximately 50%.

insulin sensitivity = conditions: mouse diabetes models; cited from earlier work
serum RBP4 = assay: Serum RBP4 measurement (ELISA) in mice after oral dosing; type: in vivo, mouse
Description: The Abca4−/− mouse model manifests accelerated accumulation of lipofuscin in the RPE and is considered a pre-clinical efficacy model for a drug reducing lipofuscin accumulation.
as §1
Blood samples were collected from a tail vein at days 0, 21 and 42 of the A1120 dosing. Whole blood was drawn into a centrifuge tube and was let clot at room temperature for 30 min followed by centrifugation at 2,000×g for 15 minutes at +4° C. to collect serum. Serum RBP4 was measured using the RBP4 (mouse/rat) dual ELISA kit (Enzo Life Sciences) following the manufacturer's instructions.
Blood samples collected from the treatment and control groups at baseline, Day 21 and Day 42 were used to measure serum RBP4 in order to correlate RBP4 levels with reduction in formation of lipofuscin bisretinoids. […] Levels of lipofuscin fluorophores (A2E, A2-DHP-PE and all-trans-retinal dimer-PE) were determined at the end of the 42-day treatment period using quantitative HPLC.

[3] = treated mice, oral 30 mg/kg (Example 3)
[4] = Abca4−/− mice, 30 mg/kg daily oral in chow

For O=C(O)c1ccccc1NC(=O)N1CCC(c2ccccc2C(F)(F)F)CC1 [Compound 1, 2(4-(2-(trifluoromethyl)phenyl)piperidine-1-carboxamido)benzoic acid], the “Effect on bisretinoid accumulation (in words)” value ([1]; Abca4−/− mouse model of excessive lipofuscinogenesis) was “inhibits bisretinoid accumulation”, the “Levels of A2-DHP-PE and atRAL di-PE” value [1, 3] was “also reduced” and the “Reduction of levels of A2E/isoA2E and other bisretinoids” value [1, 3] was “approximately 50%”. For the same molecule, the “Signs of compound toxicity such as weight loss or reduction in food consumption” value [2] was “did not note any obvious signs of compound toxicity”, the “Effect on insulin sensitivity” value (insulin sensitivity) was “did not improve insulin sensitivity” and the “Serum RBP4 reduction at Week 3 / Day 21 compared with Day 0” value (serum RBP4; [4]) was 64%. The “Serum RBP4 reduction at Week 6 / Day 42 compared with Day 0” value (serum RBP4; [4]) was 75%, the “Effect on serum RBP4 levels (in words)” value (serum RBP4; mouse, in vivo) was “reduce serum REBP4 levels” and the “Reduction in the serum RBP4 level” value (serum RBP4; orally dosed for 3 weeks at 30 mg/kg, treated animals (Example 3)) was roughly 70%.
